PubChem BioAssay (NCI)
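Cells were grown in 96-well plates and exposed to each compound for 48 hours at five concentrations; endpoints were interpolated linearly between bracketing concentrations, or set to the highest concentration if not reached. GI50 = concentration required for 50% inhibition of growth. Definition used: TGI = concentration required for complete inhibition of growth.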

Columns and labels:
Test in all cases: growth of human tumour cells (NCI), 48 h
[1] = system: SF-295 CNS
[2] = system: CAKI-1 renal
[3] = system: SF-268 CNS
[4] = system: OVCAR-5 ovarian
[5] = system: ACHN renal
[6] = system: IGROV1 ovarian
[7] = system: NCI-H460 lung
[8] = system: SK-MEL-28 melanoma
[9] = system: HCT-116 colon
[10] = system: A498 renal

Row | Structure (SMILES) | GI50 [1] [µM] | TGI [1] [µM] | GI50 [2] [µM] | TGI [2] [µM] | GI50 [3] [µM] | TGI [3] [µM] | GI50 [4] [µM] | TGI [4] [µM] | GI50 [5] [µM] | TGI [5] [µM] | GI50 [6] [µM] | TGI [6] [µM] | GI50 [7] [µM] | TGI [7] [µM] | GI50 [8] [µM] | TGI [8] [µM] | GI50 [9] [µM] | TGI [9] [µM] | GI50 [10] [µM] | TGI [10] [µM]
1 | COc1cc(/C=C/C(=O)c2c(-c3ccc(Cl)cc3)nc3sc(C)nn23)cc(OC)c1OC | 30 | > 100 | 54 | > 100 | 24.6 | > 100 | > 100 | > 100 | 20.8 | > 100 | 70.1 | > 100 | > 100 | > 100 | > 100 | > 100 | 15.7 | > 100 | 51.9 | > 100
2 | Cc1c(-c2ccc(N3CCc4cccc(C(=O)Nc5nc6ccccc6s5)c4C3)nc2C(=O)O)cnn1CC12CC3CC(CC(C3)C1)C2 | 3.53 | 11.6 | 8.35 | 23.4 | 8.05 | 24.8 | 11.4 | 32.4 | 4.83 | 18.5 | 12.6 | 31.5 | 8.22 | 24.6 | 6.27 | 19.3 | 3.23 | 14.9 | < 0.01 | < 0.0127
3 | COc1cc([C@H]2c3cc(O)c(OC)cc3C[C@]3(O)[C@@H]2CO[C@@H]3O)ccc1O |  | > 100 |  | > 100 |  | > 100 |  | > 100 |  | > 100 |  | > 100 |  | > 100 |  | > 100 |  | > 100 |  | > 100
4 | Cc1cccc(Cc2cnc(NC(=O)CCCOc3ccc(Cl)cc3)s2)c1 | 3.89 | > 100 | 3.68 | > 100 | > 100 | > 100 | 5.88 | > 100 | 3.47 | > 100 | 9.21 | > 100 | 3.32 | > 100 | 37.2 | > 100 | 3.36 | > 100 | 1.36 | 6.25
5 | COc1ccc(C[C@H](N)C(=O)N[C@@H]2[C@@H](CO)OC(n3cnc4c(N(C)C)ncnc43)[C@@H]2O)cc1 (some centres not stated) | 0.655 | 2.21 | 4.44 | 16.6 |  | 1.18 | 1.14 | 2.94 |  | 3.19 | 0.539 | 1.73 |  | 0.889 | 0.479 | 1.13 | 0.152 | 0.628 | 0.189 | 1.09
6 | O=C(/C=C/c1ccc(OCC(=O)N2CCN(c3ccccc3)CC2)cc1)c1ccccc1 |  | > 100 |  | > 100 |  | > 89.4 |  | > 90 |  | > 89.6 |  | > 100 |  | > 87 |  | 54.5 |  | > 56.6 |  | > 100
7 | ClCc1ccc(Cn2cnc3nc(Cl)nc(Cl)c32)cc1 | 1.75 | 3.27 | 1.5 | 2.86 | 0.629 | 1.43 | 1.8 | 3.54 | 0.523 | 0.953 | 1.37 | 2.72 | 3.65 | 9.19 | 1.86 | 4 | 0.235 | 1.26 | 4.36 | 8.48
8 | CCOC(=O)c1c(/C=N\Nc2ccccc2)nc2ccccc2c1-c1ccccc1 |  | > 100 |  | > 100 |  | > 100 |  | > 100 |  | > 100 |  | > 100 |  | > 100 |  | > 100 |  | > 100 |  | > 100
9 | O=C(Nc1cccc(C(F)(F)F)c1)Nc1ccc(OCc2nnc(-c3ccccc3)o2)c(F)c1 | 2.7 | 14.1 | 6.68 | 37.4 | 12.3 | 78.2 | 18.9 | > 100 | 2.92 | 12.3 | 5.5 | 26.6 | 3.61 | 15.3 | 10.3 | 66.5 | 3.02 | 16.5 | 3.38 | 25.8
10 | Cc1ccc(S(=O)(=O)NCc2cccc([N+](=O)[O-])c2)cc1 |  | > 100 |  | > 100 |  | > 100 |  | > 100 |  | > 100 |  | > 100 |  | > 100 |  | > 100 |  | > 100 |  | > 100
11 | CN(C)C(=O)c1cc2cnc(Nc3ccc(N4CCNCC4)cn3)nc2n1C1CCCC1 | 13.1 | 42 | 20 | > 100 | 14.1 | 38.3 | 1.45 | 73.1 | 7.89 | > 100 | 19.5 | > 100 | 11.3 | 43.8 | 16.1 | 48.3 | 4.25 | 48.7 | 11.8 | 30.9
12 | O=C1OC(c2ccccc2)=N/C1=C\c1ccc(N(CCCl)CCCl)cc1 |  | > 100 |  | > 100 |  | > 100 |  | > 100 |  | > 100 |  | > 100 |  | > 100 |  | > 100 |  | > 100 |  | > 100
13 | Cc1c(C(=O)C/C(=N/NC(=O)CC#N)C(N)=O)[n+](=O)c2ccccc2n1[O-] |  | > 100 |  | > 100 |  | > 100 |  | > 100 |  | > 100 |  | 87.5 |  | > 100 |  | > 100 |  | 94 |  | > 100
14 | COc1ccc(S(=O)(=O)NCCCNc2nccc(-c3c(-c4ccc(F)cc4)nc4sccn34)n2)cc1 | 11.2 | 72.3 | 6.72 | > 100 | 7.85 | > 100 | 32.7 | > 100 | 2.73 | > 100 | 5.59 | > 100 | 4.33 | > 100 | 9.5 | > 100 | 4.85 | > 100 | 1.21 | 8.37
15 | O=C(O)C12C3C4C1C1C2C3C41I (configuration not stated) |  | > 100 |  | > 100 |  | > 100 |  | > 100 |  | > 100 |  | > 100 |  | > 100 |  | > 100 |  | > 100 |  | > 100
